# Assay results from patent US11077126B2 (priority 2017, dated 2021).
# Marks after values point to notes of the source that are not given here.
# Assays:
# [1] = test system: transplanted tumor of human glioblastoma A172 cells; assay: Human glioblastoma in nude mice model; details: 30 mg/kg i.g. 30 d
# Method: (§1) Then cell concentration was adjusted to 1×10^7/ml with matrigel, then each nude mouse was inoculated subcutaneously with 0.2 ml of cells at its right armpit and recorded as the first day of inoculation. […] Each group was continuously administered intragastrically for 30 days with a dose of 20 ml/kg. The mice were sacrificed the next day after drug withdrawal and the indicators were tested. The long diameter and short diameter of the tumor, and the body weight of each mouse were recorded every 3 days from drug administration to nude mouse sacrifice.
# (§2) The body weight of the nude mice and the long diameter (a) and short diameter (b) of the transplanted tumor were measured every 3 days, and the tumor volume (v), relative tumor volume (RTV) and relative tumor proliferation rate (T/C) are calculated respectively according to the following formulas, wherein V=a×b^2/2; RTV=V/V0 (V0 is the tumor volume before administration, V is the tumor volume before sacrifice), and T/C (%)=treatment group RTV/model control group RTV×100%.
# (§3) Each mouse was weighed and sacrificed. After the tumor was completely stripped off from the body of the mouse, the non-tumor tissues such as blood stains and fat were removed to weigh the tumor and calculate the tumor growth inhibition rate. The average tumor weight of each group of mice is used as an indicator of efficacy. Tumor growth inhibition rate (%)=(1−the average tumor weight of the treatment group/the average tumor weight of the model group)×100%.
# [2] = test system: spleen lymphocytes (ConA, LPS stimulation); assay: Spleen lymphocyte proliferation activity of Lewis lung cancer tumor-bearing mice; type: in vivo, C57BL/6 mouse
# Method: The serum-free RPMI 1640 medium was placed in a dish, and then the dish was placed on ice. The spleen was aseptically taken and gently ground with a sterile glass slide to prepare a single cell suspension. The single cell suspension was filtered with a double-layer sterile gauze, washed twice with serum-free RPMI 1640 medium, and centrifuged at 1,500 rpm for 5 min to remove the obtained supernatant. 2 mL of red blood cell lysate was added to the treated suspension, the mixture was allowed to stand for 2 min, and then 8 mL of RPMI 1640 medium was added, centrifuging was performed at 1,500 rpm for 5 min to remove the obtained supernatant, and then washing was performed twice with the RPMI 1640 medium. Trypan blue staining was performed to count the number of live cells, and the cell viability was more than 95%. A single cell suspension was prepared by using a RPMI 1640 medium containing 10% fetal bovine serum.
# The spleen cell suspension was taken, and the cell density was adjusted to 1×10^7/mL. Each mouse was set with: A. a control well: 100 μL of RPMI 1640 medium was added; B. a concanavalin A (ConA) stimulation well: 100 μL (10 mg/L) of concanavalin A (ConA) solution was added; and C. a bacterial endotoxin (LPS) stimulating well: 100 μL (20 mg/L) of bacterial endotoxin (LPS) solution was added. The above cells were added to a 96-well plate, and then 100 μL of spleen cell suspension was added to each of the above wells. After the culture plate was transferred to a saturated humidity condition with a volume fraction of 5% CO2 at 37° C. for incubation for 72 h, 10 μL of MTT solution (5 g/L) was added to each well, and incubation was continued to be performed for 4 hours under the same conditions, then the culture was terminated. […] The Optical Density (OD) of each well was measured at 570 nm, and the lymphocyte proliferation rate was calculated. Lymphocyte proliferation rate (%)=[(T−C)/C]×100%, wherein T is the Optical Density of the stimulation well, and C is the Optical Density of the control well.
# [3] = test system: transplanted tumor of human glioma U251 cells; assay: Human glioma in nude mice model; details: 30 mg/kg i.g. 30 d
# Method: Then matrigel cell concentration was adjusted to 1×10^7/ml with matrigel, and then each nude mouse was inoculated subcutaneously with 0.2 ml of cells at its right armpit and recorded as the first day of inoculation. […] Each group was continuously administered intragastrically for 30 days with a dose of 20 ml/kg. The mice were sacrificed the next day after drug withdrawal and the indicators were tested. The long diameter and short diameter of tumor, and the body weight of each mouse were recorded every 3 days from drug administration to nude mouse sacrifice.
# as §2, §3
# [4] = test system: transplanted tumor of human breast cancer MCF-7 cells; assay: Human breast cancer (MCF-7) in nude mice model; details: MCF-7 nude mice; 30 mg/kg i.g. 30 d
# Method: Then cell concentration was adjusted to 1×10^7/ml with matrigel, and then each nude mouse was inoculated subcutaneously with 0.2 ml of cells at its right armpit and recorded as the first day of inoculation. […] Each group was continuously administered intragastrically for 30 days with a dose of 20 ml/kg. The mice were sacrificed the next day after drug withdrawal and the indicators were tested. The long diameter and short diameter of the tumor, and the body weight of each mouse were recorded every 3 days from drug administration to nude mouse sacrifice.
# as §2, §3
# [5] = test system: transplanted tumor of human lymphoma U937 cells; assay: Human lymphoma in nude mice model; details: 30 mg/kg i.g. 30 d
# Method: as §1, with “U937 cells in a logarithmic growth phase were taken and subjected to a trypan blue exclusion experiment showing that the cell viability was more than 95%, then the cells were subjected to trypsinization, centrifugation, and supernatant removal. Then” for “Then”, “matrigel, and” for “matrigel,”
# as §2, §3
# [6] = 26 mg/kg, positive drug group, n = 6
smiles,measurement,setting,value
O=P1(N(CCCl)CCCl)NCCCO1 (centres unmarked) [Cyclophosphamide],Body Weight (g)(d1),[1],22.89 ± 1.22 g
same,Body Weight (g)(d30),[1],19.27 ± 1.49 g
same,Inhibition Rate (%),[1],68.68%
same,Relative Tumor Proliferation Rate(T/C),[1],75.42%
same,Relative Tumor Volume (RTV),[1],11.78 ± 3.25
same,Tumor Volume (mm3) (d1),[1],122.41 ± 14.06 mm3
same,Tumor Volume (mm3) (d30),[1],1430.80 ± 134.31 mm3
same,Tumor Weight,[1],0.85 ± 0.18 g
same,B Lymphocyte Proliferation Activity (%),[2]; [6],11.63 ± 4.68 %
same,T Lymphocyte Proliferation Activity (%),[2]; [6],13.24 ± 3.72 %
same,lymphocyte activity (proliferation),"[2]; Lewis lung cancer tumor-bearing mice, cyclophosphamide, P<0.05",significantly inhibited
same,Body Weight (g)(d1),[3],22.24 ± 1.53 g
same,Body Weight (g)(d30),[3],19.92 ± 1.68 g
same,Inhibition Rate (%),[3],79.74%
same,Relative Tumor Proliferation Rate(T/C),[3],56.84%
same,Relative Tumor Volume (RTV),[3],5.75 ± 1.22
same,Tumor Volume (mm3) (d1),[3],98.40 ± 25.25 mm3
same,Tumor Volume (mm3) (d30),[3],566.33 ± 39.32 mm3
same,Tumor Weight,[3],0.42 ± 0.10 g
same,Body Weight (g)(d1),[4],21.93 ± 0.89 g
same,Body Weight (g)(d30),[4],19.79 ± 1.47 g
same,Inhibition Rate (%),[4],62.3%
same,Relative Tumor Proliferation Rate(T/C),[4],30.58%
same,Relative Tumor Volume (RTV),[4],5.00 ± 1.27
same,Tumor Volume (mm3) (d1),[4],127.68 ± 14.89 mm3
same,Tumor Volume (mm3) (d30),[4],638.62 ± 123.11 mm3
same,Tumor Weight,[4],0.72 ± 0.21 g
same,Body Weight (g)(d1),[5],19.79 ± 0.86 g
same,Body Weight (g)(d30),[5],18.85 ± 0.62 g
same,Inhibition Rate (%),[5],78.40%
same,Relative Tumor Proliferation Rate(T/C),[5],34.30%
same,Relative Tumor Volume (RTV),[5],6.37 ± 0.94
same,Tumor Volume (mm^3) (d1),[5],139.58 ± 11.25 mm^3
same,Tumor Volume (mm^3) (d30),[5],889.72 ± 59.73*** mm^3
same,Tumor Weight,[5],0.38 ± 0.16 g
